# Assay results published in patent US12295936B2, “Immunomodulating urea azalides” (Zoetis Services LLC, priority 2020, dated 2025).
# Tested on: BRD pathogens, M. haemolytica and P. multocida
# Assay: MIC screening panel of BRD pathogens (antibacterial / non-antibacterial)
# Conditions: read-out: antibacterial / non-antibacterial (MIC for the BRD pathogens)
row,Compound,MIC [µg/mL]
1,"CC[C@H]1OC(=O)[C@H](C)[C@@H](O[C@H]2C[C@@](C)(OC)[C@](O)(CN(CC)CC)[C@H](C)O2)[C@H](C)[C@@H](O[C@@H]2O[C@H](C)C[C@H](N(C)C(=O)Nc3ccccc3)[C@H]2O)[C@](C)(O)C[C@@H](C)CN[C@H](C)[C@@H](O)[C@]1(C)O [Example H-4, 1-((2S,3R,4S,6R)-2-(((2R,3S,4R,5R,8R,10R,11R,12S,13S,14R)-13-(((2R,4R,5S,6S)-5-((diethylamino)methyl)-5-hydroxy-4-methoxy-4,6-dimethyltetrahydro-2H-pyran-2-yl)oxy)-2-ethyl-3,4,10-trihydroxy-3,5,8,10,12,14-hexamethyl-15-oxo-1-oxa-6-azacyclopentadecan-11-yl)oxy)-3-hydroxy-6-methyltetrahydro-2H-pyran-4-yl)-1-methyl-3-phenylurea]",> 64
2,"CCCNC[C@]1(O)[C@H](C)O[C@@H](O[C@H]2[C@H](C)[C@@H](O[C@@H]3O[C@H](C)C[C@H](N(C)C(=O)N(C)c4cccnn4)[C@H]3O)[C@](C)(O)C[C@@H](C)CN[C@H](C)[C@@H](O)[C@](C)(O)[C@@H](CC)OC(=O)[C@@H]2C)C[C@@]1(C)OC [Example H-48, 1-((2S,3R,4S,6R)-2-(((2R,3S,4R,5R,8R,10R,11R,12S,13S,14R)-2-ethyl-3,4,10-trihydroxy-13-(((2R,4R,5S,6S)-5-hydroxy-4-methoxy-4,6-dimethyl-5-((propylamino)methyl)tetrahydro-2H-pyran-2-yl)oxy)-3,5,8,10,12,14-hexamethyl-15-oxo-1-oxa-6-azacyclopentadecan-11-yl)oxy)-3-hydroxy-6-methyltetrahydro-2H-pyran-4-yl)-1,3-dimethyl-3-(pyridazin-3-yl)urea]",> 64
3,"CC[C@H]1OC(=O)[C@H](C)[C@@H](O[C@H]2C[C@@](C)(OC)[C@@H](O)[C@H](C)O2)[C@H](C)[C@@H](O[C@@H]2O[C@H](C)C[C@H](N(C)C(=O)Nc3ccc(C#N)cc3)[C@H]2O)[C@](C)(O)C[C@@H](C)CN(C)[C@H](C)[C@@H](O)[C@]1(C)O [Example B-12, 3-(4-cyanophenyl)-1-((2S,3R,4S,6R)-2-(((2R,3S,4R,5R,8R,10R,11R,12S,13S,14R)-2-ethyl-3,4,10-trihydroxy-13-(((2R,4R,5S,6S)-5-hydroxy-4-methoxy-4,6-dimethyltetrahydro-2H-pyran-2-yl)oxy)-3,5,6,8,10,12,14-heptamethyl-15-oxo-1-oxa-6-azacyclopentadecan-11-yl)oxy)-3-hydroxy-6-methyltetrahydro-2H-pyran-4-yl)-1-methylurea]",> 64
4,"CC[C@H]1OC(=O)[C@H](C)[C@@H](O)[C@H](C)[C@@H](O[C@@H]2O[C@H](C)C[C@H](N(C)C(=O)Nc3ncccn3)[C@H]2O)[C@](C)(O)C[C@@H](C)CN[C@H](C)[C@@H](O)[C@]1(C)O [Example A-1, 1-((2S,3R,4S,6R)-2-(((2R,3S,4R,5R,8R,10R,11R,12S,13S,14R)-2-ethyl-3,4,10,13-tetrahydroxy-3,5,8,10,12,14-hexamethyl-15-oxo-1-oxa-6-azacyclopentadecan-11-yl)oxy)-3-hydroxy-6-methyltetrahydro-2H-pyran-4-yl)-1-methyl-3-(pyrimidin-2-yl)urea]",> 64
5,"CC[C@H]1OC(=O)[C@H](C)[C@@H](O)[C@H](C)[C@@H](O[C@@H]2O[C@H](C)C[C@H](N(C)C(=O)Nc3cccc(Cl)c3)[C@H]2O)[C@](C)(O)C[C@@H](C)CN[C@H](C)[C@@H](O)[C@]1(C)O [Example A-23, 3-(3-chlorophenyl)-1-((2S,3R,4S,6R)-2-(((2R,3S,4R,5R,8R,10R,11R,12S,13S,14R)-2-ethyl-3,4,10,13-tetrahydroxy-3,5,8,10,12,14-hexamethyl-15-oxo-1-oxa-6-azacyclopentadecan-11-yl)oxy)-3-hydroxy-6-methyltetrahydro-2H-pyran-4-yl)-1-methylurea]",> 64
